Data taken from PMC11122421 (Marine Drugs, 2024).
Where a SMILES comes first, the peptide text is derived from it. Bridges are numbered along the chain shown (N, C = ends).

What was measured:
rat α7 nAChRs = molecular target: T1, rat α7 nAChRs (Rattus norvegicus, UniProt Q05941); assay: cell-based; assay type: cell-based
T1 construct: expressed in transfected cells; host or cells: Xenopus laevis oocytes injected with cRNA; plasmids from J. Michael McIntosh (University of Utah)

rat α6/α3β4 nAChRs = molecular target: T2, rat α6/α3β4 nAChRs (Rattus norvegicus, UniProt P04757+P12392+P43143); assay type: cell-based
T2 construct: expressed in transfected cells; host or cells: Xenopus laevis oocytes injected with cRNA; plasmids from J. Michael McIntosh (University of Utah)

rat α3β2 nAChR = molecular target: T3, rat α3β2 nAChR (Rattus norvegicus, UniProt P04757+P12390); assay: cell-based
T3 construct: expressed in transfected cells; host or cells: Xenopus laevis oocytes injected with cRNA; plasmids from J. Michael McIntosh (University of Utah)
T3 sequence (P04757 26-499 limits assumed): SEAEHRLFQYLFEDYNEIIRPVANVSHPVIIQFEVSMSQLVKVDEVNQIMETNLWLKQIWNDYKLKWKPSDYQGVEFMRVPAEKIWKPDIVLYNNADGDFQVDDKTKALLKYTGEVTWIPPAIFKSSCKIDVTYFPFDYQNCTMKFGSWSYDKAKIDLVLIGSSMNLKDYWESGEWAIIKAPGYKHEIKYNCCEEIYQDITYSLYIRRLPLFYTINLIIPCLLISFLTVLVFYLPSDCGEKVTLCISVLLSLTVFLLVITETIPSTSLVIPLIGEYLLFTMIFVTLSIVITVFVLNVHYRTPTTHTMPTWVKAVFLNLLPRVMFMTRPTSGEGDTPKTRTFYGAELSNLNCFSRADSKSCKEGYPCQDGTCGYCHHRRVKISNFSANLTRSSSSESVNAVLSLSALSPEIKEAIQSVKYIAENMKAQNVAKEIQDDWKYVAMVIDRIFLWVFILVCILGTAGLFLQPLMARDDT
T3 sequence (P12390 25-500 limits assumed): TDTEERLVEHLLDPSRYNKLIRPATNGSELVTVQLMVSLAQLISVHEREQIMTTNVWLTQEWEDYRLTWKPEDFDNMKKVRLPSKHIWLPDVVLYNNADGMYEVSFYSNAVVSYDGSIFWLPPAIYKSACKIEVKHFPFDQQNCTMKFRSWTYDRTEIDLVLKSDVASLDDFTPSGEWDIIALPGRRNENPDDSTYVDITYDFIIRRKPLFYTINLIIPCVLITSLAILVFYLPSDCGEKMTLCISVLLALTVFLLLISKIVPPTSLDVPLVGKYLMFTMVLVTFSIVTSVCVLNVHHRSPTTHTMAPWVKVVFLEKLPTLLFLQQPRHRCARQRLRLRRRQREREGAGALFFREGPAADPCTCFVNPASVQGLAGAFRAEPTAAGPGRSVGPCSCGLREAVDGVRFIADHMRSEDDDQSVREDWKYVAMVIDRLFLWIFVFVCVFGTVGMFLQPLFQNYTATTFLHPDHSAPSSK

T1 sequence (Q05941 23-502): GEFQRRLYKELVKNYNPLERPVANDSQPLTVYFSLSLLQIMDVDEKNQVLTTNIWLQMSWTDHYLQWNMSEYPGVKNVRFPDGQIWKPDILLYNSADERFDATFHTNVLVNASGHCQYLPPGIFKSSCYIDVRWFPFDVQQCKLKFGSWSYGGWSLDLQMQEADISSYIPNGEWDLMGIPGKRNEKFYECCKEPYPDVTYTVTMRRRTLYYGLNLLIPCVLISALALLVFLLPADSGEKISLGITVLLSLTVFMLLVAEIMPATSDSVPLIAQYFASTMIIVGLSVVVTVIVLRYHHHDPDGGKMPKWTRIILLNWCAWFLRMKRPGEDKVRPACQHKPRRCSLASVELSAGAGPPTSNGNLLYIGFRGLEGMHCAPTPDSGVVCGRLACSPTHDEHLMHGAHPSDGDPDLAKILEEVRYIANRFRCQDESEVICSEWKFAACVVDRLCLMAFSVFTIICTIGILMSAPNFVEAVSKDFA
T2 sequence (P43143+P04757 fused with the stated changes): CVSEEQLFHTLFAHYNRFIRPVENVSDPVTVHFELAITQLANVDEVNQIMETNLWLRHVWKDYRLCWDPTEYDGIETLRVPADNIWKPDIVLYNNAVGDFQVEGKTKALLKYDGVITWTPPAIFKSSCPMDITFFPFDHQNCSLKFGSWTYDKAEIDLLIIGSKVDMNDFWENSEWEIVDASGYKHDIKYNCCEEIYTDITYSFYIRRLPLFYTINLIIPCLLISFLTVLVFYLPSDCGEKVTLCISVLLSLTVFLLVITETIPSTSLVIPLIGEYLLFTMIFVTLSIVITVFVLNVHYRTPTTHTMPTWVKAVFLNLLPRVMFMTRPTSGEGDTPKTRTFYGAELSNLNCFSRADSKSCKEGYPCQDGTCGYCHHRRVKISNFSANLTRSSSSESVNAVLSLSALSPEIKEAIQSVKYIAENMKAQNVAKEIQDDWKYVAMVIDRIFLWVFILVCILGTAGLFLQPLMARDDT
T2 sequence (P12392 21-495): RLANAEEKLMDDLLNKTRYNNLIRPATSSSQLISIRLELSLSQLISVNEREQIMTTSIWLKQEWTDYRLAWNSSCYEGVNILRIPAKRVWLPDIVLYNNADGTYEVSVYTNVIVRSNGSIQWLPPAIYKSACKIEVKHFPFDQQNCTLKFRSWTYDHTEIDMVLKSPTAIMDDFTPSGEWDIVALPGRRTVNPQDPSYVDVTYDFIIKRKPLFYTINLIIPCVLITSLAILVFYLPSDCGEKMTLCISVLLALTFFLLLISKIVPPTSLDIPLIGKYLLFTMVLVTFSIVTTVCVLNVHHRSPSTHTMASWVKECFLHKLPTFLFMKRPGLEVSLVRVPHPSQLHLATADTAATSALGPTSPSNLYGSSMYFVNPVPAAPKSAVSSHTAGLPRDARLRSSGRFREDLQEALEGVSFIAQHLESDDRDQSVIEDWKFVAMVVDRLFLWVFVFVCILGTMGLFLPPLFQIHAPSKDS

## C[C@@H]1NC(=O)[C@@H]2CSSC[C@H](NC(=O)CN)C(=O)N[C@@H](CSSC[C@@H](C(N)=O)NC(=O)[C@H](Cc3c[nH]cn3)NC(=O)[C@H](CCC(=O)O)NC(=O)[C@H](Cc3c[nH]cn3)NC1=O)C(=O)N[C@@H](CO)C(=O)N[C@@H](CC(N)=O)C(=O)N1CCC[C@H]1C(=O)N1CCC[C@H]1C(=O)N2 [[Q1G, ΔR14]LvIB] (H-GCCSNPPCAHEHC-NH2; disulfide 2-8, 3-13)
Rat α7 nAChRs
  Hill Slope: 0.99 (0.8–1.19)
  inhibition rate of ACh-evoked current: 98 ± 0.12%
  time to ~90% current restoration after block (recovery/washout): ≤ 17 min
Rat α6/α3β4 nAChRs
  inhibition rate: 88 ± 5%
Rat α3β2 nAChR
  inhibition rate: 97 ± 2%
